Drawing on US20100022559A1, “BISOXIMES AS FUNGICIDES” (BAYER CROPSCIENCE AG, priority 2006, published 2010), this text covers logP and chromatographic logP for 62 molecules.

The first data set is described as follows: logP determination by HPLC on a reversed-phase column (C 18), EEC Directive 79/831 Annex V.A8. The data set is classed as physicochemical. Particulars: [a] acidic range, pH 2.3, 0.1% aqueous phosphoric acid and acetonitrile. The procedure: The stated logP values were determined in accordance with EEC Directive 79/831 Annex V.A8 by HPLC (high performance liquid chromatography) on a reversed-phase column (C 18). Temperature: 43° C.
For the molecule `Cc1cccc(C(=NOCCCON)C(C)C)n1` [XII-1], the logP was 1.12^[a].
The same measure, in the same setting: then `Cc1cccc(C(=NOCCCON)C(C)C)n1` [XII-2], with 1.05^[a]; and `C/C(=N\OCC(C)(C)CON)c1ccc(C)c(C)n1` [XII-6], with 0.98^[a]; and `C/C(=N\OCCCON)c1cccc(C)n1` [XII-10], with 0.27^[a].
Same read-out and setting: then `C/C(=N\OCC1(CON)CC1)c1cc(C)cc(C)n1` [XII-12], with 0.61^[a].
As for `C/C(=N\OCC1(CON)CC1)c1cccc(C)n1` [XII-13], the logP is 0.78^[a].
On the same count and under the same terms, then `C/C(=N\OCC(C)(C)CON)c1cc(C)cc(C)n1` [XII-14], with 0.8^[a]; and `C/C(=N\OCC(C)(C)CON)c1cc(C(F)(F)F)cc(C)n1` [XII-16], with 2.69^[a]; and `C/C(=N\OCCCCON)c1ccc(C)c(C)n1` [XII-17], with 0.51^[a].

The data set is the same for the next values; noted with them: [b] LC-MS, acidic range, pH 2.7, 0.1% aqueous formic acid and acetonitrile.
On to `C/C(=N\OCC(C)(C)CON)c1cccc(C)n1` [XII-4], for which the logP was 1.11^[b].
`C/C(=N\OCC(C)(C)CON)c1ccc(C)c(C)n1` [XII-6]: the logP was 0.98^[b].
Same read-out and setting: the result for `C/C(=N\OCCCON)c1cccc(C)n1` [XII-10] reads 0.27^[b]; that for `C/C(=N\OCC1(CON)CC1)c1cc(C)cc(C)n1` [XII-12], 0.61^[b].
On the same count and under the same terms, the result for `C/C(=N\OCC1(CON)CC1)c1cccc(C)n1` [XII-13] reads 0.78^[b].
On the same count and under the same terms, the result for `C/C(=N\OCC(C)(C)CON)c1cc(C)cc(C)n1` [XII-14] reads 0.8^[b]; that for `C/C(=N\OCC(C)(C)CON)c1cc(C(F)(F)F)cc(C)n1` [XII-16], 2.69^[b].

The data set is the same for the next values; noted with them: [c] LC-MS, neutral range, pH 7.8, 0.001 molar aqueous ammonium bicarbonate solution and acetonitrile.
For the molecule `C/C(=N\OCC(C)(C)CON)c1ccc(C)c(C)n1` [XII-6], the logP was 2.94^[c].
The same measure, in the same setting: the result for `C/C(=N\OCCCON)c1cccc(C)n1` [XII-10] reads 1.72^[c]; that for `C/C(=N\OCC1(CON)CC1)c1cc(C)cc(C)n1` [XII-12], 2.42^[c]; that for `C/C(=N\OCC1(CON)CC1)c1cccc(C)n1` [XII-13], 2.11^[c].
`C/C(=N\OCC(C)(C)CON)c1cc(C)cc(C)n1` [XII-14]: the logP is 2.89^[c].
The same measure, in the same setting: the result for `C/C(=N\OCC(C)(C)CON)c1cc(C(F)(F)F)cc(C)n1` [XII-16] reads 3.92^[c].

Staying with this data set, now noted: method marker [a] (footnote not shown); isomer A / isomer B / isomer mixture as noted in the cell.
Take `CC(=NOCC(C)(O)CON=C(C)c1ccccn1)c1ccccn1` (stereo not drawn) [compound 2]: the logP is 1.73^[a].
Turning to `CC(=NOCC(O)CON=C(C)c1ccccn1)c1ccccn1` (stereo not drawn) [compound 3], the logP was 1.50^[a].

Still in this data set, the particulars now being: method marker [b]; isomer A / isomer B / isomer mixture as noted in the cell.
For `Cc1cc(C)nc(/C(N)=N/OCCCCO/N=C(\N)c2nc(C)cc(C)n2)n1` [compound 4], the logP is 1.73^[b].
On the same count and under the same terms, the result for `Cc1cc(C)nc(/C(N)=N/OCO/N=C(\N)c2nc(C)cc(C)n2)n1` [compound 5] reads 1.49^[b]; that for `CC(=NOCCCCON=C(C)c1cccc(C)n1)c1cccc(C)n1` [compound 6], 3,16^[b]; that for `CC(=NOCON=C(C)c1cccc(C)n1)c1cccc(C)n1` [compound 7], 2.39^[b].
In the case of `C=C(CO/N=C(\N)c1nc(C)cc(C)n1)CO/N=C(\N)c1nc(C)cc(C)n1` [compound 8], the logP was 1.80^[b].
Still for that read-out and setting: then `CC(=NOCC1(CON=C(C)c2cccc(C)n2)COC1)c1cccc(C)n1` [compound 19], with 2.45^[b]; and `C=C(CON=C(C)c1ccc(Cl)s1)CON=C(C)c1ccc(Cl)s1` [compound 20], with 5.88^[b]; and `C=C(CON=C(C)c1cccn1C)CON=C(C)c1cccn1C` [compound 21], with 5.03^[b].
Same read-out and setting: then `C=C(CON=C(C)c1ccc(C)nc1)CON=C(C)c1ccc(C)nc1` [compound 22], with 1.37^[b]; and `C=C(CON=C(C)c1cc(Cl)cc(Cl)c1)CON=C(C)c1cccc(C)n1` [compound 24], with 6.30^[b].
Still for that read-out and setting: the result for `C=C(CON=C(C)c1c(C)noc1C)CON=C(C)c1c(C)noc1C` [compound 25] reads 3,57^[b]; that for `CC(=NOCCON=C(C)c1ccncc1)c1ccncc1` [compound 28], 0.66^[b].
As for `CC(=NOCCCON=C(C)c1ccncc1)c1ccncc1` [compound 29], the logP is 1.23^b].
Still for that read-out and setting: then `CC(=NOCCON=C(C)c1ccccn1)c1ccccn1` [compound 30], with 2.21^[b]; and `CC(=NOCCCON=C(C)c1ccccn1)c1ccccn1` [compound 31], with 2.67^[b]; and `CC(=NOCCCON=C(C)c1cccnc1)c1cccnc1` [compound 33], with 1.51^[b].
The same measure, in the same setting: the result for `CC(=NOCCON=C(C)c1cc(C)ccn1)c1cc(C)ccn1` [compound 34] reads 1.71^[b]; that for `CC(=NOCCCON=C(C)c1cc(C)ccn1)c1cc(C)ccn1` [compound 35], 1.94^[b].
On the same count and under the same terms, the result for `Cc1nc(/C(N)=N/OCCCCO/N=C(\N)c2nc(C)c3c(n2)CCCC3)nc2c1CCCC2` [compound 36] reads 2.58^[b]; that for `COCc1nc(/C(N)=N/OCCCCO/N=C(\N)c2nc(COC)c(C)c(COC)n2)nc(COC)c1C` [compound 37], 1.75^[b].
Take `N/C(=N\OCCCCO/N=C(\N)c1ncc(F)cc1F)c1ncc(F)cc1F` [compound 38]: the logP was 2.45^[b].
Still for that read-out and setting: the result for `Cc1nc(/C(N)=N/OCO/N=C(\N)c2nc(C)c3c(n2)CCCC3)nc2c1CCCC2` [compound 39] reads 2.29^[b].
Same read-out and setting: the result for `COCc1nc(/C(N)=N/OCO/N=C(\N)c2nc(COC)c(C)c(COC)n2)nc(COC)c1C` [compound 40] reads 1.35^[b].
On the same count and under the same terms, then `Cc1nc(/C(N)=N/OCO/N=C(\N)c2nc(C)c(Cl)c(C)n2)nc(C)c1Cl` [compound 41], with 2.36^[b].
For `N/C(=N\OCO/N=C(\N)c1nc(C2CC2)cc(C2CC2)n1)c1nc(C2CC2)cc(C2CC2)n1` [compound 42], the logP is 2.92^[b].
In the case of `C=C(CO/N=C(\N)c1nc(C)c2c(n1)CCCC2)CO/N=C(\N)c1nc(C)c2c(n1)CCCC2` [compound 43], the logP was 2.67^[b].
Same read-out and setting: the result for `C=C(CO/N=C(\N)c1nc(COC)c(C)c(COC)n1)CO/N=C(\N)c1nc(COC)c(C)c(COC)n1` [compound 44] reads 1.83^[b]; that for `C=C(CO/N=C(\N)c1ncc(F)cc1F)CO/N=C(\N)c1ncc(F)cc1F` [compound 45], 2.42^[b]; that for `C=C(CO/N=C(\N)c1nc(C)c(Cl)c(C)n1)CO/N=C(\N)c1nc(C)c(Cl)c(C)n1` [compound 46], 2.84^[b].
On the same count and under the same terms, then `C=C(CO/N=C(\N)c1nc(C2CC2)cc(C2CC2)n1)CO/N=C(\N)c1nc(C2CC2)cc(C2CC2)n1` [compound 47], with 3.33^[b].
Same read-out and setting: then `CC(=NOCCON=C(C)c1cnc(-c2ccccc2)s1)c1cnc(-c2ccccc2)s1` [compound 48], with 6.51^[b]; and `CC(=NOCCCON=C(C)c1cnc(-c2ccccc2)s1)c1cnc(-c2ccccc2)s1` [compound 49], with 7.07^[b]; and `CC(=NOCCON=C(C)c1nc(C)c(C)s1)c1nc(C)c(C)s1` [compound 50], with 4.35^[b].
As to `CC(=NOCCCON=C(C)c1nc(C)c(C)s1)c1nc(C)c(C)s1` [compound 51], the logP was 5.03^[b].
As for `CC(=NOCCON=C(C)c1nc(C)cs1)c1nc(C)cs1` [compound 52], the logP was 3.63^[b].
Consider `CC(=NOCCON=C(C)c1sc(C)nc1C)c1sc(C)nc1C` [compound 53], for which the logP is 2.70^[b].
The same measure, in the same setting: the result for `CC(=NOCCCON=C(C)c1sc(C)nc1C)c1sc(C)nc1C` [compound 54] reads 3.10^[b].

Staying with this data set, now noted: reversed-phase HPLC column (C 18); HCO2H; HPLC reversed-phase column (C 18), 43° C.; read-out: logP (HCO2H).
`CC(CON1C(=O)c2ccccc2C1=O)CON1C(=O)c2ccccc2C1=O` [IX-1, 2,2′-[(2-methylpropane-1,3-diyl)bis(oxy)]bis(1H-isoindole-1,3(2H)-dione)]: the chromatographic logP came to 2.87.
Still for that read-out and setting: the result for `C/C(=N\OCC(C)(C)CCl)c1cccc(C)n1` [VI-1, (1E)-1-(6-methylpyridin-2-yl)ethanone O-(3-chloro-2,2-dimethylpropyl)oxime] reads 3.76.
Same read-out and setting: then `C/C(=N\OCC1(CON)CC1)c1ccc(C)c(C)n1` [XII-8, (1E)-1-(5,6-dimethylpyridin-2-yl)ethanone O-({1-[(aminooxy)methyl]-cyclopropyl}methyl)oxime], with 0.73.

Still in this data set, the particulars now being: reversed-phase HPLC column (C 18); [a] acidic range, pH 2.3, 0.1% aqueous phosphoric acid and acetonitrile; read-out: logP.
With `C/C(=N\OCC1(CON)CC1)c1ccc(C)c(C)n1` [XII-8, (1E)-1-(5,6-dimethylpyridin-2-yl)ethanone O-({1-[(aminooxy)methyl]-cyclopropyl}methyl)oxime], the chromatographic logP came to 0.53.

Staying with this data set, now noted: reversed-phase HPLC column (C 18); [b] LC-MS, acidic range, pH 2.7, 0.1% aqueous formic acid and acetonitrile; read-out: logP.
Regarding `C/C(=N\OCC1(CON)CC1)c1ccc(C)c(C)n1` [XII-8, (1E)-1-(5,6-dimethylpyridin-2-yl)ethanone O-({1-[(aminooxy)methyl]-cyclopropyl}methyl)oxime], the chromatographic logP is 0.53.

The same data set, now with this note: reversed-phase HPLC column (C 18); [c] LC-MS, neutral range, pH 7.8, 0.001 molar aqueous ammonium bicarbonate solution and acetonitrile; read-out: logP.
Regarding `C/C(=N\OCC1(CON)CC1)c1ccc(C)c(C)n1` [XII-8, (1E)-1-(5,6-dimethylpyridin-2-yl)ethanone O-({1-[(aminooxy)methyl]-cyclopropyl}methyl)oxime], the chromatographic logP stood at 2.44.

Staying with this data set, now noted: value marked [a].
As to `CC(=NOC[Si](C)(CON=C(C)c1ccc(C)c(C)n1)C(C)C)c1ccc(C)c(C)n1` [Compound 837], the logP was 6.76^[a].
Still for that read-out and setting: the result for `Cc1cc(C)nc(C(C#N)=NOCC(C)CON=C(C#N)c2cc(C)cc(C)n2)c1` (stereo not drawn) [Compound 838] reads 4.84^[a]; that for `COc1cc(C)nc(C(C)=NOCC(C)(C)CON=C(C)c2cc(OC)cc(C)n2)c1` [Compound 840], 1.5^[a].
Same read-out and setting: the result for `CCOc1cc(C)nc(C(C)=NOCC(C)(C)CON=C(C)c2cc(OCC)cc(C)n2)c1` [Compound 841] reads 2.00^[a]; that for `C=C(CON=C(OCC)c1cccc(C)n1)CON=C(OCC)c1ccc(C)c(C)n1` [Compound 843], 2.25^[a]; that for `CC(=NOCC(C)CON=C(C)c1cc(N2CCCC2)cc(C)n1)c1cc(N2CCCC2)cc(C)n1` (stereo not drawn) [Compound 847], 1.40^[a].
Still for that read-out and setting: the result for `CC(=NOCC1(CON=C(C)c2cccc(C3CC3)n2)CC1)c1cccc(C2CC2)n1` [Compound 848] reads 7.36^[a].

The same data set, now with this note: value marked [b].
Regarding `CC(=NOC[Si](C)(CON=C(C)c1ccc(C)c(C)n1)C(C)C)c1ccc(C)c(C)n1` [Compound 837], the logP is 6.76^[b].
Still for that read-out and setting: then `C#CCOc1ccc(C(C)=NOCC(C)CON=C(C)c2ccc(OCC#C)c(C)n2)nc1C` (stereo not drawn) [Compound 867], with 5.33^[b].
Consider `COCc1cc(C)nc(C(C)=NOCC(C)CON=C(C)c2cc(COC)cc(C)n2)c1` (stereo not drawn) [Compound 871], for which the logP was 4.06^[b].

Still in this data set, the particulars now being: value marked [c].
Turning to `CC(=NOC[Si](C)(CON=C(C)c1ccc(C)c(C)n1)C(C)C)c1ccc(C)c(C)n1` [Compound 837], the logP was 7.36^[c].
Take `COc1cc(C)nc(C(C)=NOCC(C)(C)CON=C(C)c2cc(OC)cc(C)n2)c1` [Compound 840]: the logP was 5.79^[c].
`CCOc1cc(C)nc(C(C)=NOCC(C)(C)CON=C(C)c2cc(OCC)cc(C)n2)c1` [Compound 841]: the logP is 6.90^[c].
Same read-out and setting: the result for `CC(=NOCC(C)CON=C(C)c1cc(N2CCCC2)cc(C)n1)c1cc(N2CCCC2)cc(C)n1` (stereo not drawn) [Compound 847] reads 5.93^[c]; that for `C#CCOc1ccc(C(C)=NOCC(C)CON=C(C)c2ccc(OCC#C)c(C)n2)nc1C` (stereo not drawn) [Compound 867], 5.44^[c]; that for `CC(=NOC[Si](C)(C)CON=C(C)c1ccc(C)c(C)n1)c1ccc(C)c(C)n1` [Compound 870], 7.05^[c].
Same read-out and setting: the result for `COCc1cc(C)nc(C(C)=NOCC(C)CON=C(C)c2cc(COC)cc(C)n2)c1` (stereo not drawn) [Compound 871] reads 5.57^[c].
